Laboratory results from article PMC10574094, “Discovery of a SHP2 Degrader with In Vivo Anti-Tumor Activity” (Molecules, 2023).
“Also recorded” adds a separate entry of the source.

What was measured:
SHP2 = biological target: T1, SHP2 (Homo sapiens, UniProt Q06124); assay: SHP2 level in KYSE-520 tumor homogenates (Western blot); type: in vivo, mice; parameters: from tissue; host or cells: KYSE-520 xenograft tumour from nude mice, whole tumour homogenate; settings: whole tumor homogenates, 50 mg/kg P9 IP
T1 sequence (Q06124 1-593): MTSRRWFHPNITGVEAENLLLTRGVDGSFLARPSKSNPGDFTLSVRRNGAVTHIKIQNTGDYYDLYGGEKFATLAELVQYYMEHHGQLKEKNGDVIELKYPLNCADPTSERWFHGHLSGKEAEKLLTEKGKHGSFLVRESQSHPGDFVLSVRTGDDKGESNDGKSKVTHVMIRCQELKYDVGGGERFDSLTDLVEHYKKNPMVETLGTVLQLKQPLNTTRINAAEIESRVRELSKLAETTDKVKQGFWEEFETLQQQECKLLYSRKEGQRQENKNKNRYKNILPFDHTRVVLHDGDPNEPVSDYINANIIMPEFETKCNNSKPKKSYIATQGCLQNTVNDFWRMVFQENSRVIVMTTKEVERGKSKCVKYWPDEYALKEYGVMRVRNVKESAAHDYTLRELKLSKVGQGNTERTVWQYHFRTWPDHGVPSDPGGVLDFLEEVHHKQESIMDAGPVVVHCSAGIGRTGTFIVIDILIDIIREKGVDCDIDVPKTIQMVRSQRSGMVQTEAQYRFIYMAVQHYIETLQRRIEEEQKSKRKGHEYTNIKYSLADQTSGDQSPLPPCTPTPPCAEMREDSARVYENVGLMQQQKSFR
Description: (§1) HEK293, SKBR3, U2OS, MCF7 and A549 cells were grown in DMEM supplemented with 10% FBS, penicillin (50 units/mL), and streptomycin (50 μg/mL) in a 37 °C incubator containing 5% CO2. KYSE-520 and H358 cells were grown in RPMI-1640 supplemented with 10% FBS, penicillin (50 units/mL), and streptomycin (50 μg/mL) in a 37 °C incubator containing 5% CO2. For western-blot analysis, protein samples were separated by SDS-PAGE, transferred to nitrocellulose membranes, and incubated overnight at 4 °C with corresponding primary antibodies diluted in 5% BSA in phosphate-buffered saline Tween (PBST). SuperSignal™ West Pico PLUS (PI34580; Thermo Scientific) was used to visualize the antibodies in the bioanalytical imaging system (Azure Biosystems c500). Anti-p-ERK1/2 (T202/Y204) (4370), and anti-ERK1/2 (4696) were purchased from Cell Signaling Technology. Anti-GAPDH (sc-365062), anti-SHP2 (sc-7384), anti-SHP1 (sc-7289), and anti-Actin (sc-8432) antibodies were purchased from Santa Cruz. Anti-PTP1B (ab244207) antibody was purchased from Abcam. […]
(§2) For the xenograft tumor study, KYSE-520 cells were suspended in PBS and a total of 3 × 10^6 cells (100 μL) were subcutaneously implanted into both the left and right flank using a 27-gauge needle. Tumor volume was calculated using the formula V = (W^2 × L)/2 for caliper measurements. […]

other PTPs = assay: PTP inhibition assay, panel of representative PTP family members; type: biochemical; settings: up to 10 µM P9 concentration
Description: PTP activity was assayed using p-nitrophenyl phosphate (pNPP) as a substrate in DMG buffer (50 mM DMG, pH 7.0, 1 mM EDTA, 150 mM NaCl, 2 mM DTT, 0.1 mg/mL BSA) at 25 °C. The assays were performed in 96-well plates. To determine the IC50 values, the reaction was initiated by the addition of enzyme (final concentration = 10 nM) to a reaction mixture (0.2 mL) containing pNPP (at a final concentration close to the Kms of tested enzymes, in specific: 0.05 mM for CDC-14A; 0.5 mM for FAP-1; 2 mM for TC-PTP, PTP1B, STEP, LWM-PTP, and PTPα; 3 mM for SHP1; 4 mM for Laforin; 5 mM for LYP, CD45, and VHR; 6 mM for PTP-MEG2 and HePTP) with various concentrations of inhibitors. The reaction rate was measured using a SpectraMax Plus 384 Microplate Spectrophotometer (Molecular Devices, San Jose, CA, USA). Data were fitted using the SigmaPlot Enzyme Kinetics Module (Systat Software, Inc., San Jose, CA, USA).

PTP1B and SHP1 = assay: Western blot of PTP1B and SHP1 in KYSE-520 cells; type: cell-based; settings: 16 h
Description: (§3) HEK293, SKBR3, U2OS, MCF7 and A549 cells were grown in DMEM supplemented with 10% FBS, penicillin (50 units/mL), and streptomycin (50 μg/mL) in a 37 °C incubator containing 5% CO2. KYSE-520 and H358 cells were grown in RPMI-1640 supplemented with 10% FBS, penicillin (50 units/mL), and streptomycin (50 μg/mL) in a 37 °C incubator containing 5% CO2. For western-blot analysis, protein samples were separated by SDS-PAGE, transferred to nitrocellulose membranes, and incubated overnight at 4 °C with corresponding primary antibodies diluted in 5% BSA in phosphate-buffered saline Tween (PBST). SuperSignal™ West Pico PLUS (PI34580; Thermo Scientific) was used to visualize the antibodies in the bioanalytical imaging system (Azure Biosystems c500). Anti-p-ERK1/2 (T202/Y204) (4370), and anti-ERK1/2 (4696) were purchased from Cell Signaling Technology. Anti-GAPDH (sc-365062), anti-SHP2 (sc-7384), anti-SHP1 (sc-7289), and anti-Actin (sc-8432) antibodies were purchased from Santa Cruz. Anti-PTP1B (ab244207) antibody was purchased from Abcam. For colony formation assay, a total of approximately 200–500 cells were seeded to each well in a 12-well plate. The wells were then treated with DMSO, compound P9 and 3 at 37 °C for 3 weeks, gently washed, and stained with crystal violet.

[1] = Tolerability and body weight in xenograft study; type: in vivo; settings: mice, 25 mg/kg or 50 mg/kg daily IP
Description: Experiments on mice were carried out in accordance with the regulations of the Institutional Animal Care and Use Committees at Purdue University. All mice were housed under pathogen-free conditions in the animal facility and received autoclaved water and food. Eight to ten weeks-old Nude mice were used in the study.
For the xenograft tumor study, KYSE-520 cells were suspended in PBS and a total of 3 × 10^6 cells (100 μL) were subcutaneously implanted into both the left and right flank using a 27-gauge needle. Tumor volume was calculated using the formula V = (W^2 × L)/2 for caliper measurements. Once the tumor volume reaches 200 mm^3, daily intraperitoneal injection of either control, 25 mg/kg or 50 mg/kg of compound P9 was performed. Mice were sacrificed after injection for 18 days, and tumors were collected for biochemical analysis.

[2] = system: SHP1, PTP1B, TC-PTP, LYP, PRL1, PRL2; assay: Western blot of other PTPs in HEK293 cells (degrader selectivity); type: cell-based, human; settings: 1 μM P9, 16 h
Description: as §3

pERK1/2 [3] = assay: pERK1/2 level in KYSE-520 tumor homogenates (Western blot); type: in vivo, mice; settings: whole tumor homogenates, 50 mg/kg P9 IP
Description: as §1, §2

pERK1/2 [4] = assay: pERK1/2 inhibition by Western blotting in KYSE-520 cells; type: cell-based; settings: Homo sapiens, 16 h
Description: as §3

[5] = system: KYSE-520, SKBR3, U2OS, MCF7, H358 and A549 cells; assay: Colony formation assay; type: cell-based; settings: 3 weeks treatment
Description: as §3

ERK1/2, AKT, β-Actin = assay: Western blot of other signaling proteins in HEK293 cells; type: cell-based, human; settings: 1 μM P9, 16 h
Description: as §3

SMILES: Cc1ncsc1-c1ccc([C@H](C)NC(=O)[C@@H]2C[C@@H](O)CN2C(=O)[C@@H](NC(=O)CCCCCCCCCN2CCN(C(=O)CCCCCC3(CN)CCN(c4cnc(Sc5cccc(Cl)c5Cl)c(N)n4)CC3)CC2)C(C)(C)C)cc1 [P9, (2S,4R)-1-((S)-2-(10-(4-(6-(1-(6-amino-5-((2,3-dichlorophenyl)thio)pyrazin-2-yl)-4-(aminomethyl)piperidin-4-yl)hexanoyl)piperazin-1-yl)decanamido)-3,3-dimethylbutanoyl)-4-hydroxy-N-((S)-1-(4-(4-methylthiazol-5-yl)phenyl)ethyl)pyrrolidine-2-carboxamide]
- SHP2 level, % of the control group (SHP2): 34 ± 18%
- inhibition towards other PTPs (other PTPs): no significant inhibition
- protein levels of PTP1B and SHP1 (PTP1B and SHP1): not affected
- tolerability [1]: well tolerated
- animal body weight ([1]; during treatment): preserved; also recorded: no significant effect on mice body weight
- protein level of other PTPs [2]: none of the other PTPs including SHP1, PTP1B, TC-PTP, LYP, PRL1, and PRL2, were affected
- pERK1/2 level, % of the control group (pERK1/2 [3]): 24 ± 12%
- EC50 (pERK1/2 [4]): ~0.24 µM
- growth inhibition in colony formation assay compared with compound 3 [5]: improved efficacy in inhibiting the growth of these cancer cells
- degradation of other signaling proteins (ERK1/2, AKT, β-Actin): did not induce any appreciable degradation
